In patent publication US7179819B2, “VLA-4 inhibitor compounds” (Daiichi Pharmaceutical Co., Ltd., priority 1999, dated 2007) one finds concentration and melting point data, which are given here for 33 compounds.

The first data set in a line: Mouse bio-assay: serum concentration after oral dosing, determined by direct binding assay of diluted serum. Particulars: female, Balb/c, serum, po, 50 mg/kg.
Description: A compound was dissolved or suspended with an appropriate solvent at 1 mg/mL. Female Balb/c mice (7–9 weeks old) were given the compound orally. Blood samples were collected from the postcaval vein of the anesthetized mice after fifteen minutes. Serum was prepared and stored at −20° C. Serum concentration of the compound was determined from inhibitory activities of the diluted serum by a direct binding assay using VLA-4-expressing cells and VCAM-IgG fusion protein. Serum concentration determined by this method correlated well with the concentration determined by LC/MS/MS methodologies.
The compound `COc1cc(CC(=O)N2CCC[C@H]2COc2ccc(C(=O)O)cc2)ccc1NC(=O)Nc1ccccc1Cl` [Compound 58, 4-[1-[4-[N′-(2-chlorophenyl)ureido]-3-methoxylphenylacetyl]-(2S)-pyrrolindinyl]methoxybenzoic acid] showed a concentration at 30 min of 3610 ng/mL.

Assay in a further data set: not given
Details: not given
The compound `COc1cc(CC(=O)N2CC[C@@H](Oc3ccc(C(=O)O)cc3)C2)ccc1NC(=O)Nc1ccccc1Cl` [Compound 186, 4-[1-[4-[N′-(2-chlorophenyl)ureido]-3-methoxyphenylacetyl]-(3R)-pyrrolidinyloxy]benzoic acid] had a melting point of 193 to 194 °C.

`COc1cc(CC(=O)N2CC[C@@H](Oc3ccc(C(=O)O)cc3)C2)ccc1NC(=O)Nc1ccccc1Br` [Compound 187, 4-[1-[4-[N′-(2-bromophenyl)ureido]-3-methoxyphenylacetyl]-(3R)-pyrrolidinyloxy]benzoic acid] registered a melting point of 175 to 177 °C.

Compound `COc1cc(CC(=O)NCCOc2ccc(C(=O)O)cc2OC)ccc1NC(=O)Nc1ccccc1C` [Compound 255, 3-methoxy-4-[2-[3-methoxy-4-[N′-(2-methylphenyl)ureido]phenylacetyl]aminoethoxy]benzoic acid] returned a melting point of 180 to 181 °C.

In the case of `COc1cc(CC(=O)NCCOc2ccc(C(=O)O)cc2[N+](=O)[O-])ccc1NC(=O)Nc1ccccc1C` [Compound 257, 3-nitro-4-[2-[3-methoxy-4-[N′-(2-methylphenyl)ureido]phenylacetyl]aminoethoxy]benzoic acid], the melting point lay in the range of 112 to 115 °C.

The compound `COc1cc(CC(=O)N2CCN(c3ccc(C(=O)O)cc3)CC2)ccc1NC(=O)Nc1ccccc1C` [Compound 259] had a melting point of 240 to 245 °C.

As to `COc1cc(CC(=O)N[C@H](C)COc2ccc(C(=O)O)cc2OC)ccc1NC(=O)Nc1ccccc1C` [Compound 260, (R)-3-methoxy-4-[2-[3-methoxy-4-[N′-(2-methylphenyl)ureido]phenylacetylamino]-1-propoxy]benzoic acid], the melting point lay in the range of 168 to 169 °C.

`COc1cc(CC(=O)N(CCOc2ccc(C(=O)O)cc2OC)CCN2CCN(C)CC2)ccc1NC(=O)Nc1ccccc1C` [Compound 263]: the melting point is 155 to 160 °C.

`COc1cc(CC(=O)N[C@@H](C)COc2ccc(C(=O)O)cc2)ccc1NC(=O)Nc1ccccc1C` [Compound 272, (S)-4-[2-[3-methoxy-4-[N′-(2-methylphenyl)ureido]phenylacetylamino]-1-propoxy]benzoic acid] gave a melting point of 198 to 201 °C.

In the case of `Cc1ccccc1NC(=O)Nc1ccc(CC(=O)N[C@@H](C)COc2ccc(C(=O)O)cc2)cc1` [Compound 273, (S)-4-[2-[4-[N′-(2-methylphenyl)ureido]phenylacetylamino]-1-propoxy]benzoic acid], the melting point lay in the range of 262 to 265 °C.

Take `Cc1ccccc1NC(=O)Nc1ccc(CC(=O)N[C@@H](C)COc2ccc(C(=O)O)cc2Cl)cc1` [Compound 274, (S)-3-chloro-4-[2-[4-[N′-(2-methylphenyl)ureido]phenylacetylamino]-1-propoxy]benzoic acid]: the melting point was in the range of 228 to 231 °C.

`COc1cc(CC(=O)N[C@@H](C)COc2ccc(C(=O)O)cc2Cl)ccc1NC(=O)Nc1ccccc1C` [Compound 275, (S)-3-chloro-4-[2-[3-methoxy-4-[N′-(2-methylphenyl)ureido]phenylacetylamino]-1-propoxy]benzoic acid] came in with a melting point of 198 to 201 °C.

As to `COc1cc(CC(=O)N(C)CCOc2ccc(C(=O)O)cc2N(C)C)ccc1NC(=O)Nc1ccccc1C` [Compound 276, 3-dimethylamino-4-[[2-[3-methoxy-4-[N′-(2-methylphenyl)ureido]phenylacetyl]methylamino]ethoxy]benzoic acid], the melting point lay in the range of 125 to 130 °C.

For `COc1cc(CC(=O)N(C)CCOc2ccc(C(=O)O)cc2N(C)C)ccc1NC(=O)Nc1ccccc1F` [Compound 277, 3-dimethylamino-4-[[2-[3-methoxy-4-[N′-(2-fluorophenyl)ureido]phenylacetyl]methylamino]ethoxy]benzoic acid], the melting point was in the range of 120 to 125 °C.

The compound `Cc1ccccc1NC(=O)Nc1ccc(CC(=O)N(C)CCOc2ccc(C(=O)O)cc2N(C)C)cc1` [Compound 278] returned a melting point of 110 to 115 °C.

For `COc1cc(CC(=O)N(C)CCOc2ccc(C(=O)O)cc2NC(C)C)ccc1NC(=O)Nc1ccccc1F` [Compound 279, 3-isopropylamino-4-[[2-[3-methoxy-4-[N′-(2-fluorophenyl)ureido]phenylacetyl]methylamino]ethoxy]benzoic acid], the melting point fell in the range of 195 to 200 °C.

Turning to `COc1cc(CC(=O)N[C@@H](C)COc2ccc(C(=O)O)cc2Cl)ccc1NC(=O)Nc1ccccc1F` [Compound 281, (S)-3-chloro-4-[2-[3-methoxy-4-[N′-(2-fluorophenyl)ureido]phenylacetylamino]-1-propoxy]benzoic acid], the melting point was 188 to 191 °C.

As for `COc1cc(CC(=O)N(C)CCNc2ccc(C(=O)O)cc2)ccc1NC(=O)Nc1ccccc1C` [Compound 282, 4-[[2-[3-methoxy-4-[N′-(2-methylphenyl)ureido]phenylacetyl]methylamino]ethylamino]benzoic acid], the melting point fell in the range of 115 to 120 °C.

`COc1cc(CC(=O)N(C)[C@@H](C)COc2ccc(C(=O)O)cc2Cl)ccc1NC(=O)Nc1ccccc1F` [Compound 283, (S)-3-chloro-4-[2-[N-methyl-N-[3-methoxy-4-[N′-(2-fluorophenyl)ureido]phenylacetyl]amino]-1-propoxy]benzoic acid] yielded a melting point of 142 to 147 °C.

`COc1cc(CC(=O)N(C)[C@@H](C)COc2ccc(C(=O)O)cc2Cl)ccc1NC(=O)Nc1ccccc1C` [Compound 284]: the melting point lay within 125 to 130 °C.

Turning to `COc1cc(CC(=O)N(C)CCOc2ccc(C(=O)O)cc2NC(C)C)ccc1NC(=O)Nc1ccccc1C` [Compound 285, 3-isopropylamino-4-[[2-[3-methoxy-4-[′-(2-methylphenyl)ureido]phenylacetyl]methylamino]ethoxy]benzoic acid], the melting point fell in the range of 130 to 135 °C.

`COc1cc(CC(=O)N(C)CCN(C)c2ccc(C(=O)O)cc2)ccc1NC(=O)Nc1ccccc1C` [Compound 286, 4-[[2-[3-methoxy-4-[N′-(2-methylphenyl)ureido]phenylacetyl]methylamino]ethyl]methylamino benzoic acid] yielded a melting point of 125 to 130 °C.

`COc1cc(CC(=O)N(Cc2ccccc2)[C@@H](C)COc2ccc(C(=O)O)cc2Cl)ccc1NC(=O)Nc1ccccc1F` [Compound 287, (S)-3-chloro-4-[2-[N-benzyl-N-[3-methoxy-4-[N′-(2-fluorophenyl)ureido]phenylacetyl]amino]-1-propoxy]benzoic acid] returned a melting point of 125 to 130 °C.

For `COc1cc(CC(=O)N(C)CCOc2ccc(C(=O)O)cc2N(C)C(C)C)ccc1NC(=O)Nc1ccccc1C` [Compound 288, 3-(N-isopropyl-N-methylamino)-4-[[2-[3-methoxy-4-[N′-(2-methylphenyl)ureido]phenylacetyl]methylamino]ethoxy]benzoic acid], the melting point was in the range of 130 to 135 °C.

The compound `COc1cc(CC(=O)N(C)CCOc2ccc(C(=O)O)cc2N2CCCCC2)ccc1NC(=O)Nc1ccccc1F` [Compound 289, 3-(1-piperidinyl)-4-[[2-[3-methoxy-4-[N′-(2-fluorophenyl)ureido]phenylacetyl]methylamino]ethoxy]benzoic acid] showed a melting point of 125 to 130 °C.

Consider `COc1cc(CC(=O)N(C)CCOc2ccc(C(=O)O)cc2N)ccc1NC(=O)Nc1ccccc1C` [Compound 290, 3-amino-4-[[2-[3-methoxy-4-[N′-(2-methylphenyl)ureido]phenylacetyl]methylamino]ethoxy]benzoic acid], for which the melting point was in the range of 125 to 130 °C.

Take `COc1cc(CC(=O)N(C)CCOc2ccc(C(=O)O)cc2N2CCCCC2)ccc1NC(=O)Nc1ccccc1C` [Compound 291, 3-(1-piperidinyl)-4-[[2-[3-methoxy-4-[N′-(2-methylphenyl)ureido]phenylacetyl]methylamino]ethoxy]benzoic acid]: the melting point was 120 to 125 °C.

Compound `COc1cc(CC(=O)N(C)CCOc2ccc(C(=O)O)cc2N)ccc1NC(=O)Nc1ccccc1F` [Compound 292, 3-amino-4-[[2-[3-methoxy-4-[N′-(2-fluorophenyl)ureido]phenylacetyl]methylamino]ethoxy]benzoic acid] yielded a melting point of 125 to 130 °C.

As for `COc1cc(CC(=O)N[C@@H](C)COc2ccc(C(=O)O)cc2N)ccc1NC(=O)Nc1ccccc1C` [Compound 293, (S)-3-amino-4-[2-[3-methoxy-4-[N′-(2-methylphenyl)ureido]phenylacetylamino]-1-propoxy]benzoic acid], the melting point lay within 200 to 204 °C.

In turn, `COc1cc(CC(=O)N[C@@H](C)COc2ccc(C(=O)O)cc2)ccc1NC(=O)Nc1ccccc1Br` [Compound 294, (S)-4-[2-[3-methoxy-4-[N′-(2-bromophenyl)ureido]phenylacetylamino]-1-propoxy]benzoic acid] displayed a melting point of 202 to 205 °C.

Compound `COc1cc(CC(=O)N(C)CCNc2ccc(C(=O)O)c(NC(C)=O)c2)ccc1NC(=O)Nc1ccccc1Br` [Compound 303, 2-acetylamino-4-[2-N-[4-[N′-(2-bromophenyl)ureido]-3-methoxyphenyl]-N-methylacetamido]ethylaminobenzoic acid] returned a melting point of 155 to 160 °C.

On to `Cc1cc(CC(=O)N2C[C@@H](F)C[C@H]2COc2ccc(C(=O)O)cc2)ccc1NC(=O)Nc1c(Cl)cccc1Cl` [Example 83, 4-[(2S, 4S)-1-[4-[N′-(2,6-Dichlorophenyl)ureido]-3-methylphenylacetyl]4-fluoro-2-pyrrolidinyl]methoxybenzoic acid], for which the melting point was 174 to 180 °C (dec.).

Compound `COc1cc(CC(=O)N2C[C@@H](NS(=O)(=O)c3cccc4c(N(C)C)cccc34)C[C@H]2COc2ccc(C(=O)O)cc2)ccc1NC(=O)Nc1ccccc1Br` [Example 155, 4-[1-[4-[N′-(2-bromophenyl)ureido]-3-methoxyphenylacetyl]-4dansylamino-(2S)-pyrrolidinyl]methoxybenzoic acid] came in with a melting point of 138 to 141 °C.

In general, melting point refers to the temperature of the solid-liquid transition.
